Data set [1] has as its system HIV (HTLV-IIIB strain). The data set is described as follows: inhibitory activities against HIV cell proliferation, MT-4 cells, MTT (Experimental Example 2). In kind it is cell-based. Particulars: Human immunodeficiency virus 1, IIIB, MT4, 96 h, concentration at which 50% of cytopathy caused by viruses was inhibited, 4 days, read-out: Experimental example 2 (EC50, ng/ml). The method, then: The inhibitory activities against HIV cell proliferation were determined by the assay method described below. • (1) HIV (HTLV-IIIB strain) persistence infection human T-cell strain Molt-4 clone 8 was cultured on RPMI-1640 medium supplemented with 10% fetal bovine serum, and the supernatant was measured for viral titer after filtration, and stored at −80° C. On the other hand, each anti-HIV active agent was diluted in the above culture medium to a predetermined concentration, and each well of a 96-well microplate was added with 50 μl of the resultant active agent solution. Then, 100 μl (3.5×10^4 cells) each of MT-4 cell suspension was poured into each well, followed by each 50 μl (60 pfu (plaque forming unit)) of the HIV-containing supernatant diluted with the above culture medium. • (2) After incubating for 4 days in a carbon dioxide incubator at 37° C., every well was added with 30 μl of 3-(4,5-dimethylthiazole-2-yl)-2,5-diphenyltetrazolium bromide (MTT) 5 mg/ml), PBS, and incubated for another 1 hour. At this time, since living cells reduce MTT to cause precipitation of formazane, 150 μl of cell supernatant was removed from each well, and instead 150 μl of lysis solution (isopropanol supplemented with 10% Triton X-100 and 0.4% (v/v) HCl) was added, to make formazane eluate by shaking with a plate mixer. […] The concentration of Compound at which 50% of cytopathy caused by viruses was inhibited was defined as EC50.

Data set [2] has as its target HIV integrase (Human immunodeficiency virus type 1 group M subtype B, UniProt P04585). The data set is described as follows: inhibitory activities against integrase (Experimental Example 1). In kind it is biochemical. Particulars: integrase inhibition, OD405 nm plate assay; read-out: Experimental example 1 (IC50, ng/ml) (converted). The method, then: The inhibitory activities against integrase were determined by the assay described below.
A substrate DNA, solution (2 pmol/μl) and a target DNA solution (5 pmol/μl) were prepared in the manner as described in Experimental example 1 of WO 2004/024693. Before using the DNA solutions, complementary chains were annealed by slowly cooling after boiling. Substrate DNA and target DNA had sequences as described in that Experimental example.
Streptavidin, obtained from Vector Laboratories, was dissolved in 0.1 M carbonate buffer (composition: 90 mM Na2CO3, 10 mM NaHCO3) at concentration of 40 μg/ml. After coating each well of immunoplates (obtained from NUNC) with 50 μl of the above solution at 4° C. over night, each well was washed twice with PBS (composition: 13.7 mM NaCl, 0.27 mM KCl, 0.43 mM Na2HPO4, 0.14 mM KH2PO4) and blocked with 300 μl of 1% skim milk in PBS for 30 min. Additionally, each well was washed twice with PBS and added 50 μl of substrate DNA solution (2 pmol/μl). The immunoplates were kept at room temperature for 30 min while shaking. Then, each well was washed twice with PBS and once with H2O.
Subsequently, in the each well prepared above were added 51 μl of the reaction solution prepared from 12 μl of the buffer (composition: 150 mM MOPS (pH 7.2), 75 mM MnCl2, 50 mM 2-mercaptoethanol, 25% glycerol, 500 μg/ml bovine serum albumin-fraction V), and 39 μl of the distilled water. Then 9 μl of an integrase solution (30 pmol) was added and mixed well. In the well of negative control (NC) was added 9 μl of the integrase dilution buffer (composition: 20 mM MOPS (pH7.2), 400 mM potassium glutamate, 1 mM EDTA, 0.1% NP-40, 20% glycerol, 1 mM DTT, 4M urea), and mixed well using a plate mixer.
The plates were incubated at 30° C. for 60 minutes. The reaction solution was removed and washed three times with 250 μl of washing buffer (composition: 150 mM MOPS (pH7.2), 50 mM 2-mercaptoethanol, 25% glycerol, 500 μg/ml bovine serum albumin-fraction V).
Then each well was added with 53 μl of reaction solution prepared from 12 μl of buffer (composition: 150 mM MOPS (pH7.2), 75 mM MgCl2, 50 mM 2-mercaptoethanol, 25% glycerol, 500 μg/ml bovine serum albumin-fraction V) and 41 μl of distilled water. Further, each well was added with 6 μl of DMSO solution of a compound to be tested, and the well of positive control (PC) was added with 6 μl of DMSO, and mixed well by a plate mixer. After incubating the plate for 30 minutes at 30° C., was added 1 μl of target DNA (5 pmol/μl), and mixed well by a plate mixer.
After incubation for 10 minutes at 30° C., each plate was washed twice with PBS after removal of the reaction solution. […] The optical density at 405 nm (OD405 nm) of each well was measured and the inhibition rate (IC50) was determined by the following expression. […]

In brackets after ≈: the same amount, converted by molar mass.

Four molecules from patent publication US20100204237A1, “Hydroxypyrimidinone derivatives having inhibitory activity against HIV integrase” (priority 2003, published 2010) can be followed below.

Consider `Cc1nc(-c2nnc(Cc3ccc(F)cc3)o2)c(O)c(=O)[nH]1` [Comparative example 1, reference compound], for which, in data set [1], the EC50 worked out at 19000 ng/mL (≈ 62.9 µM). In addition, the IC50 in data set [2] was 92.6 nM.

In general, melting point refers to the temperature, or range, at which the solid turns liquid. In turn, `CC(=O)N1CCC[C@H]1c1nc(-c2nnc(Cc3ccc(F)cc3)o2)c(O)c(=O)n1C` [Compound I-2] displayed a melting point of 170 to 172 °C. Further, the EC50 in data set [1] is 38 ng/mL (≈ 0.0919 µM). The IC50 in data set [2] was 138 nM.

Take `CN(C(=O)c1ccccn1)C(C)(C)c1nc(-c2ncc(Cc3ccc(F)cc3)s2)c(O)c(=O)[nH]1` [Compound I-45]: the melting point was 245 °C. Moreover, the EC50 in data set [1] came to 5.6 ng/mL (≈ 0.0117 µM). Also, the IC50 in data set [2] is 12.1 nM.

As to `CCN1C(C)n2c(nc(-c3ncc(Cc4ccc(F)cc4)s3)c(O)c2=O)C1(C)C` (centres unmarked) [Compound I-60], the melting point is 165 to 168 °C. Further, the EC50 in data set [1] stood at 18 ng/mL (≈ 0.0434 µM). For the same molecule, in data set [2], the IC50 is 15.9 nM.
